{"source": "paper PMC10269072", "about": "“Predicting Optimal Antimalarial Drug Combinations from a Standardized Plasmodium falciparum Humanized Mouse Model” (Antimicrobial Agents and Chemotherapy, 2023)", "key": {"[1]": {"tested_on": "P. falciparum 3D7^0087/N9", "assay": "PfalcHuMouse model: therapeutic efficacy (parasite clearance, day of recrudescence, cure) in P. falciparum-infected humanized NSG mice", "assay_type": "in vivo, Plasmodium falciparum", "settings": "for day after which no recrudescence occurred (DoR): oral monotherapy, historical data, different dose levels and schedules, drugs with curative exposures in the data set; for exposure leading to 95% probability of cure: logistic regression of historical data", "source_text": "To implement the PfalcHuMouse model for analysis of combinations, we first defined the variables of therapeutic response and their interpretation in the context of this analysis. These variables were parasite clearance (PC), parasite recrudescence (PR), and cure (Fig. 2a). […] In our studies, we estimated PC by measuring the ratio of parasitemia in blood at 48-h intervals (pDn/pDn+2, where pD stands for parasitemia and n indicates the day of the assay), which was a simplified alternative of the classical approach and is frequently used in clinical studies. Conversely, PR depends on the number of viable parasites remaining in the body that could proliferate after noneffective treatment and is not systematically used to measure parasite killing in vivo. To test PR validity, we hypothesized that the time point for recrudescent parasitemia to reach the value at the onset of drug treatment (i.e., day of recrudescence [DoR]) correlated with the number of parasites that survived antimalarial treatment ([35]). […] It is important to note that both DoRs, days 0 and 60, represented not quantifiable magnitudes but labels of specific conditions (i.e., therapeutic failure and cure, respectively).\nExperimental infections were carried out as previously described ([12]), with minor modifications. Briefly, NSG mice were engrafted with hE by intraperitoneal daily injections of 1-mL hE suspensions until a minimum of 40% chimerism in peripheral blood was achieved (typically10 days of injections). The hE-engrafted mice (HuMice) were infected with 0.3 mL of a suspension of pooled blood collected by aseptic cardiac puncture from CO2-euthanized donor HuMice harboring a parasitemia of 5 to 10% P. falciparum 3D7^0087/N9.\n(§1) Before drug administration, each infected mouse was randomly assigned to its corresponding treatment. […] The treatments were administered by oral gavage with 20-gauge straight reusable feeding needles (Fine Science Tools GmbH, Heidelberg, Germany). The volume of administration for the per os (p.o.) route was 10 mL/kg of body weight unless otherwise stated.\nThe quantification of parasitemia at different time points after the infection was performed by flow cytometry as previously described ([46]). Briefly, 2 μL of blood was taken from the lateral tail vein of HuMice and stained with SYTO-16 (Fisher Scientific), a membrane-permeable nonselective fluorescent nucleic acid dye to detect intraerythrocytic parasites, and TER119-phycoerythrin monoclonal antibody (Miltenyi Biotec, Bergisch Gladbach, Germany) as a marker of murine erythrocytes, exactly as described. The samples were acquired and analyzed in a Attune NxT acoustic focusing flow cytometer (Thermo Fisher Scientific, Waltham, MA). The limit of quantification was set to 0.01%, where a minimum of 100 infected events was considered the minimal statistically significant sample (~10^6 total erythrocytes counted for detection). Parasitemia was expressed as the percentage of parasitized erythrocytes with respect to the total erythrocytes in circulation and/or as the absolute concentration of circulating parasitized erythrocytes. For qualitative assessment of blood samples from infected mice, blood smears stained with 10% (vol/vol) Giemsa in saline buffer (0.015 M NaCl, 0.001 M phosphate buffer [pH 7.0]) were prepared and analyzed as described previously ([56]) in a Zeiss Primo Star 4 microscope (Thermo Fisher Scientific) at a magnification of ×100.\nThe treated mice that reached the limit of detection by standard flow cytometry (<0.01% from total circulating erythrocytes) after pharmacological treatment were maintained until day 60 of study."}, "[2]": {"assay": "Concentration of drugs in whole blood of P. falciparum 3D7^0087/N9-infected HuMice after oral dosing (LC-MS/MS, PK analysis)", "assay_type": "in vivo, mice", "settings": "for AUC(0-t) / Cmax / Tmax / AUC0toTlast: mouse, in vivo; for AUC(0-t): AUC0toTlast", "protocol": "as §1\nThe concentrations of drugs were measured in whole blood of P. falciparum 3D7^0087/N9-infected HuMice since the amount of plasma that could be obtained from each mouse was very low. Samples of peripheral blood (25 μL) were taken at different time points after dosing, mixed with 25 μL of 10.9 mM potassium oxalate and 59.5 mM sodium fluoride in Milli-Q water, and immediately frozen on a thermal block at −80°C. The frozen samples were stored at −80°C until analysis. Blood from P. falciparum 3D7^0087/N9-infected HuMice harboring a parasitemia of ~1.4% was used for preparation of standard curves, calibration, and quality control samples. The drugs were extracted from 10 μL of lysates, obtained by protein precipitation of blood samples, by using standard liquid-liquid extraction methods. The samples were analyzed by liquid chromatography-tandem mass spectrometry (LC-MS/MS) for quantification in Waters Micromass ultrahigh-performance triple quadrupole (UPLC-TQD) (Waters, Manchester, UK) mass spectrometers.\nMultivariate linear regression, logistic regression, and descriptive statistics were carried out using GraphPad Prism 9.0 (GraphPad Software, San Diego, CA). The comparison of regression models was executed using the Akaike information criterion ([57]). Probability values of <0.05 were considered significant. Phoenix WinNonlin 8.2 (Certara, St. Louis, MO) was used for PK standard analysis."}, "[3]": {"assay": "Blood partitioning: distribution of drugs in plasma, erythrocytes and infected erythrocytes of the PfalcHuMouse", "assay_type": "in vivo, mice", "settings": "for fraction associated with circulating erythrocytes / fraction found in plasma: mouse, in vivo", "source_text": "Given their physicochemical properties, both ferroquine and piperaquine might accumulate in infected erythrocytes ([41]), so we mined data on the distribution of these drugs in plasma, erythrocytes, and infected erythrocytes of the PfalcHuMouse from previous blood partitioning studies in unrelated drug discovery programs. Approximately 97.5% of both ferroquine and piperaquine was associated with circulating erythrocytes, while only 2.5% was found in plasma. For piperaquine, the accumulation was even higher in erythrocytes of infected individuals (>99%). Moreover, as previously reported ([13]), there was no sequestration of P. falciparum in vascular endothelium of the PfalcHuMouse. Therefore, the contribution of drug accumulated in mature parasites circulating in blood might be relevant, especially in proliferating parasites exposed to noninhibitory concentrations. Consequently, we corrected this effect on drug exposure in blood by dividing the total drug exposure levels in blood by the number of infected erythrocytes in circulation for each animal in the study."}, "[4]": {"settings": "artefenomel plus piperaquine model, intercept 102.8, n = 40, Tjur's R^2 = 0.91"}, "[5]": {"settings": "ferroquine plus artefenomel model, intercept 17.2, n = 50, Tjur's R^2 = 0.31"}}}
{"compound": "COc1ccc2nc3cc(Cl)ccc3c(Nc3cc(CN4CCCC4)c(O)c(CN4CCCC4)c3)c2n1", "note": "[pyronaridine]", "values": [{"measurement": "day after which no recrudescence occurred (DoR)", "setting": "[1]", "value": "≤ 35", "unit": "days"}]}
{"compound": "Clc1ccc2c(N3CCN(CCCN4CCN(c5ccnc6cc(Cl)ccc56)CC4)CC3)ccnc2c1", "note": "[piperaquine]", "values": [{"measurement": "AUC(0-t)", "setting": "[2]; po, 5 mg/kg", "value": 25300, "unit": "ng·h/mL"}, {"measurement": "Cmax", "setting": "[2]; po, 5 mg/kg", "value": 598, "unit": "ng/mL"}, {"measurement": "AUC(0-t)", "setting": "[2]; po, 10 mg/kg", "value": 21800, "unit": "ng·h/mL"}, {"measurement": "Cmax", "setting": "[2]; po, 10 mg/kg", "value": 346, "unit": "ng/mL"}, {"measurement": "AUC(0-t)", "setting": "[2]; po, 25 mg/kg", "value": 41900, "unit": "ng·h/mL"}, {"measurement": "Cmax", "setting": "[2]; po, 25 mg/kg", "value": 414, "unit": "ng/mL"}, {"measurement": "Tmax", "setting": "[2]; po, 25 mg/kg", "value": 77, "unit": "h"}, {"measurement": "AUC0toTlast", "setting": "[2]; po, 40 mg/kg", "value": 38866, "unit": "ng·h/mL"}, {"measurement": "AUC(0-t)", "setting": "[2]; po, 40 mg/kg", "value": 70000, "unit": "ng·h/mL"}, {"measurement": "Cmax", "setting": "[2]; po, 40 mg/kg", "value": 1120, "unit": "ng/mL"}, {"measurement": "AUC(0-t)", "setting": "[2]; po, 75 mg/kg", "value": 355000, "unit": "ng·h/mL"}, {"measurement": "Cmax", "setting": "[2]; po, 75 mg/kg", "value": 2550, "unit": "ng/mL"}, {"measurement": "Tmax", "setting": "[2]; po, 75 mg/kg", "value": 109, "unit": "h"}, {"measurement": "accumulation in erythrocytes of infected individuals", "setting": "[3]; PfalcHuMouse, infected individuals", "value": "> 99", "unit": "%"}, {"measurement": "fraction associated with circulating erythrocytes", "setting": "[3]", "value": "Approximately 97.5%"}, {"measurement": "fraction found in plasma", "setting": "[3]", "value": 2.5, "unit": "%"}, {"measurement": "coefficient of log10AUC in logistic model of cure log(p/1−p)", "setting": "[1]; [4]", "value": 24.2}, {"measurement": "exposure leading to 95% probability of cure", "setting": "[1]; monotherapy", "value": "3.47 × 10^−3 nmol/10^6 infected erythrocytes (iE)"}]}
{"compound": "CCCCN(CCCC)CC(O)c1cc(Cl)cc2c1-c1ccc(Cl)cc1/C2=C/c1ccc(Cl)cc1", "note": "(stereo not shown) [lumefantrine]", "values": [{"measurement": "day after which no recrudescence occurred (DoR)", "setting": "[1]", "value": "≤ 35", "unit": "days"}]}
{"compound": "c1cc([C@H]2CC[C@]3(CC2)OO[C@]2(O3)C3CC4CC(C3)CC2C4)ccc1OCCN1CCOCC1", "note": "[artefenomel]", "values": [{"measurement": "AUC(0-t)", "setting": "[2]; po, 100 mg/kg", "value": 40900, "unit": "ng·h/mL"}, {"measurement": "Cmax", "setting": "[2]; po, 100 mg/kg", "value": 2200, "unit": "ng/mL"}, {"measurement": "Tmax", "setting": "[2]; po, 100 mg/kg", "value": 2, "unit": "h"}, {"measurement": "coefficient of log10AUC in logistic model of cure log(p/1−p)", "setting": "[1]; [4]", "value": 16.2}, {"measurement": "coefficient of log10AUC in logistic model of cure log(p/1−p)", "setting": "[1]; [5]", "value": 1.6}, {"measurement": "pattern of interaction with piperaquine on parasite killing in vivo", "setting": "[1]; graphic analysis of cure, assuming potency of artefenomel in the same order of magnitude as piperaquine", "value": "synergistic"}, {"measurement": "mechanistic pattern of interaction with ferroquine", "setting": "[1]; graphic analysis of cure, conditioned by large difference in intrinsic potency", "value": "additivity"}, {"measurement": "exposure up to which no cures were available in monotherapy", "setting": "[1]; monotherapy, schedules of treatment used in the experimental studies", "value": "up to 4.7 × 10^−3 nmol/10^6 iE"}]}
{"compound": "CNC[c-]1cccc1CNc1ccnc2cc(Cl)ccc12.[Fe+2].c1cc[cH-]c1", "note": "(stereo not shown) [SSR97213]", "values": [{"measurement": "share of the total exposure of ferroquine plus SSR97213", "setting": "[2]; average, main metabolite of ferroquine", "value": 40, "unit": "%"}]}
{"compound": "ferroquine", "values": [{"measurement": "AUC0toTlast", "setting": "[2]; 20 mg/kg", "value": 4708, "unit": "ng·h/mL"}, {"measurement": "fraction associated with circulating erythrocytes", "setting": "[3]", "value": "Approximately 97.5%"}, {"measurement": "fraction found in plasma", "setting": "[3]", "value": 2.5, "unit": "%"}, {"measurement": "coefficient of log10AUC in logistic model of cure log(p/1−p)", "setting": "[1]; [5]", "value": 5.4}, {"measurement": "exposure leading to 95% probability of cure", "setting": "[1]; monotherapy", "value": "0.58 × 10^−3 nmol/10^6 infected erythrocytes (iE)"}]}
